Results on one compound are retold here after PMC7753040, “Discovery of a Potent RIPK3 Inhibitor for the Amelioration of Necroptosis-Associated Inflammatory Injury” (Frontiers in Cell and Developmental Biology, 2020).

One data set deals with HT-29 cells. The data set can be described thus: TNF-induced necroptosis in HT-29 cells (cell viability, ATP levels). The class given is cell-based, human. As to conditions: 2 h pretreatment, then TNF-α 40 ng/ml, Smac mimetic 100 nM, z-VAD 20 μM for 48 h, focused library, compared to GSK’872. The procedure:
Cells were seeded in 96-well plates and then treated as indicated. The cell viability was determined by assessment of ATP levels using the CellTiter-Glo Luminescent Cell Viability Assay kit following the manufacture’s instructions (Promega). Luminescence was calculated with SpectraMax i3x (Molecular Devices).
To discover novel inhibitors of necroptosis, we designed and synthesized a focused library with novel structures based on the GSK’872 scaffold.
Cell viability was assessed by measuring ATP levels. […] T, TNF-α; S, Smac mimetic; Z, z-VAD.

Another data set has as its target T1, human RIPK3 (Homo sapiens, UniProt Q9Y572).
T1 construct: purchased SignalChem
Description: In vitro kinase activity assay (ADP-Glo), RIPK3. The class given is biochemical. Particulars: ATP 50 μM, MBP 20 μM; compared to GSK’872. The procedure: The recombinant human RIPK1 or RIPK3 protein was incubated with the control DMSO or the indicated compound for around 15 min in the assay buffer (25 mM HEPES PH7.2, 12.5 mM MnCl2, 5 mM EGTA, 20 mM MgCl2, 12.5 mM β-glycerol phosphate, 2 mM EDTA, and 2 mM DTT). ATP (50 μM) and the substrate MBP (20 μM) were then added to the reaction at room temperature for 2 h. The kinase activity was calculated by the measuring the luminescence after the addition of the ADP-Glo Kinase Assay kit according to the manufacture’s instructions (Promega).
In vitro kinase activity assays using recombinant RIPK3 and RIPK1 were performed as described in the section “Materials and Methods.” Data represent mean value ± standard deviation. […] NIH3T3-RIPK3 cells were pretreated with indicated compounds for 2 h and subsequently treated with AP20187 (60 nM) for 24 h. Cell viability was determined by measuring ATP levels. […] HeLa-MLKL (1–190) cells were induced by doxycycline (1 μg/ml) for 24 h. Cells were pretreated with indicated compounds for 2 h and subsequently treated with AP20187 (60nM) for 24h. Cell viability was determined by measuring ATP levels. […] (F) MEFs were treated as indicated for 3 h. Cell lysates were harvest and subjected to western-blot analysis for full length and cleaved caspase 3.

Another data set addresses hERG (Homo sapiens, UniProt Q12809). The data set can be described thus: hERG inhibition (standard patch clamp). The class given is cell-based. As to the method: Cytochrome P450 (CYP) inhibitory potency was determined by industrial standard methods as reported previously ([Dong et al., 2015]). Methods to determine potassium channel hERG inhibition and in vivo pharmacokinetic parameters have been previously published ([Lu et al., 2017]).
On the technique in general: hERG is a cardiac potassium channel; its block is linked to QT prolongation.

pIC50: −log10 of the molar value.

Chain of hERG (Q12809 whole entry): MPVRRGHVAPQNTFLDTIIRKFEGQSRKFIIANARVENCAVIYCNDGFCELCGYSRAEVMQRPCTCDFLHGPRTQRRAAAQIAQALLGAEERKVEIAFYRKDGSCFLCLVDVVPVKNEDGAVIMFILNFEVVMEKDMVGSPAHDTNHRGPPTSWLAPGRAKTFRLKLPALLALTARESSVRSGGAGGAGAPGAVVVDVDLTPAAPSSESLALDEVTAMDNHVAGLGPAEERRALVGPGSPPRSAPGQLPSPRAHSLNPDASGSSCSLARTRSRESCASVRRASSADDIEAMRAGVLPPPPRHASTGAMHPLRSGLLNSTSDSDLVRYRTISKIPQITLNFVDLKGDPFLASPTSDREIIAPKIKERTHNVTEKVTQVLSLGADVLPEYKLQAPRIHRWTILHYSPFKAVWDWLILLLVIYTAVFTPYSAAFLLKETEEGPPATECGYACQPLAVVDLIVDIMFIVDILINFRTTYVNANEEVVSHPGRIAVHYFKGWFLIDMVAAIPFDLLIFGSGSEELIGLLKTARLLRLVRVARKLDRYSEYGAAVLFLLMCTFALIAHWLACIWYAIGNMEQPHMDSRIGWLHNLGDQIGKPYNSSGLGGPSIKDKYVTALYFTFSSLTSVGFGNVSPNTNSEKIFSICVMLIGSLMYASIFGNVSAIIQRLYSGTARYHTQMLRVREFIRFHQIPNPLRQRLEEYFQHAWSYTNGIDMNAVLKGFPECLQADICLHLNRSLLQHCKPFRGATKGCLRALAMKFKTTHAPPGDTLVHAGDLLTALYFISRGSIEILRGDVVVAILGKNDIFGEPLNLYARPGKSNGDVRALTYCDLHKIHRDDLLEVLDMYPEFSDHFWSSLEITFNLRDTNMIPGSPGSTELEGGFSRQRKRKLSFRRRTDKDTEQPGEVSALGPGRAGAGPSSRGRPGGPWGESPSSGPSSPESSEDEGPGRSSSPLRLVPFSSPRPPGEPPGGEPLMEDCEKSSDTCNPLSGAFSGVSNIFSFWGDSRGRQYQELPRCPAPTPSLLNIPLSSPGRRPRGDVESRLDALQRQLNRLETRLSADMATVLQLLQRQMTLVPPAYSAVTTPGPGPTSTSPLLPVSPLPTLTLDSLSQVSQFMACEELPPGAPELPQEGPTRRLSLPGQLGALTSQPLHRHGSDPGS
T1 sequence (Q9Y572 whole entry): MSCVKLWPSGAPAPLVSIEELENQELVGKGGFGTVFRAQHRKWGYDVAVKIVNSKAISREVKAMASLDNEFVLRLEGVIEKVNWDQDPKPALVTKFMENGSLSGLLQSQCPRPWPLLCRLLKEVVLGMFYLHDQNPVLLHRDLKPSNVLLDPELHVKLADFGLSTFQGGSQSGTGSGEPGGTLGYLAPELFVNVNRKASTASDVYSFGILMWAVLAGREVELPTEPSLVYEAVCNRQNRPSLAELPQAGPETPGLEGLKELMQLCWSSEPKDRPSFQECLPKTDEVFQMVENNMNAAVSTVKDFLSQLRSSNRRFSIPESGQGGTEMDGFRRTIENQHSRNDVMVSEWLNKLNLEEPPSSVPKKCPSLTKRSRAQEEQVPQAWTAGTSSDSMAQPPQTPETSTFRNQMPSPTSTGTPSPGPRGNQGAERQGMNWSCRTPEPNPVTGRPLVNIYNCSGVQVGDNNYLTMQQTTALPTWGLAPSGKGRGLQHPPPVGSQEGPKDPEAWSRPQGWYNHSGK

As usually defined, the pIC50 is the negative decadic logarithm of the IC50, by convention in mol/L. The low end stands for a high IC50, the high end for a low IC50. Turning to `O=S1(=O)C=C(C2CC2)c2cc3nccc(Nc4ccc5scnc5c4)c3cc21` [Zharp-99], the “inhibition of TNF-induced necroptosis” value in the data set on HT-29 cells was “most efficient inhibitor”. In addition, on human RIPK3, the “inhibition of the kinase activity of human RIPK3 in vitro” value was “higher inhibitory activity compared to GSK’872”. Further, the pIC50 on hERG was below 5.00.
